PMC4714714 (Journal of medicinal chemistry, 2015)
Read-outs that look alike come from different tables or passages of the source.

Tests used:
[1] = tested on: KB human nasopharyngeal carcinoma cells (FRα/PCFT/RFC); assay: Growth inhibition of KB human tumor cells; type: cell-based
[2] = molecular target: T1, DHFR (Homo sapiens, UniProt P00374); assay: Isolated enzyme assay DHFR; type: biochemical; conditions: nucleoside protection and isolated enzyme assays (not shown)
T1 sequence (P00374 1-187): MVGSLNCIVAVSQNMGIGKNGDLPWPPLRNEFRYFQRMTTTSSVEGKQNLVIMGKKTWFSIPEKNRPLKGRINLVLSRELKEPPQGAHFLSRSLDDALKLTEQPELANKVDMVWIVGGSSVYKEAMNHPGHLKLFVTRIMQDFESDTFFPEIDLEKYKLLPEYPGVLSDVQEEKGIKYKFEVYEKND

[3] = molecular target: TS (Homo sapiens, UniProt P04818); assay: Isolated enzyme assay TS; type: biochemical; conditions: nucleoside protection and isolated enzyme assays (not shown)
[4] = tested on: SKOV3 human ovarian tumor xenografts; assay: In vivo efficacy trial against SKOV3 xenografts in SCID mice; conditions: folate-deficient diet; 4 28 mg/kg, 7 16 mg/kg i.v. Q4dx3
[5] = molecular target: FRα (Homo sapiens, UniProt P15328); assay: [3H]folic acid competition binding to FRα on RT16 CHO cells
[6] = molecular target: FRβ (Homo sapiens, UniProt P14207); assay: [3H]folic acid competition binding to FRβ on D4 CHO cells
[7] = molecular target: T2, PCFT (Homo sapiens, UniProt Q96NT5); assay: PCFT uptake and transport kinetics in R2/PCFT4 CHO cells; type: cell-based
T2 sequence (Q96NT5 1-459): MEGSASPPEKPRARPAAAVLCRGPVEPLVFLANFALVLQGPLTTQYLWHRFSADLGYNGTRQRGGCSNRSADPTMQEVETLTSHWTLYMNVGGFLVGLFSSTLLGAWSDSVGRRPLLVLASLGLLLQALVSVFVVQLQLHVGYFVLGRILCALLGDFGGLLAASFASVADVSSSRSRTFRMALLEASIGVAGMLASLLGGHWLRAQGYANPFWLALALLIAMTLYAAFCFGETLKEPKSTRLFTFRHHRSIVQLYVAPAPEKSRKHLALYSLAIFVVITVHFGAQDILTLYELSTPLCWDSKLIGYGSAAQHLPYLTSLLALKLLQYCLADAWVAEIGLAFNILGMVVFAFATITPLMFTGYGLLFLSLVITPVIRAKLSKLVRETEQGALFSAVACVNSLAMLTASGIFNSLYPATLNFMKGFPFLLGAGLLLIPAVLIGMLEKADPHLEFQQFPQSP

[8] = molecular target: T3, recombinant human GARFTase (Homo sapiens, UniProt P22102); assay: In vitro GARFTase inhibition assay; type: biochemical; conditions: from Ki values
T3 sequence (P22102 810-1010 limits assumed): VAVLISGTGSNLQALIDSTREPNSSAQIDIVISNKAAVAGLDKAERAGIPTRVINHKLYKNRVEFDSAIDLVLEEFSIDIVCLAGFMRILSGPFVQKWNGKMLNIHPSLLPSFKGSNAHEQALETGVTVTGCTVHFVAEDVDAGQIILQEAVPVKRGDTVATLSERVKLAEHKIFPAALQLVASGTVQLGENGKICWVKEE

[9] = read-out: IC50 for inhibition of proliferation, KB

TS, sequence (P04818 whole entry): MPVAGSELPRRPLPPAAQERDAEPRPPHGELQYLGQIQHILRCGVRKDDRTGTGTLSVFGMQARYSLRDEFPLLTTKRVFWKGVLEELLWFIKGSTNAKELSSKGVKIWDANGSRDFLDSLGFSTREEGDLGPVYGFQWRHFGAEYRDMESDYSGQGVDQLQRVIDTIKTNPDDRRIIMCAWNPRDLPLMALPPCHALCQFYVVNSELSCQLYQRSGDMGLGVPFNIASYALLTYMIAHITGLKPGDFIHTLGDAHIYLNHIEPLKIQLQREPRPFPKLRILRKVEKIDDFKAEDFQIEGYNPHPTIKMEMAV
FRα, sequence (P15328 25-257): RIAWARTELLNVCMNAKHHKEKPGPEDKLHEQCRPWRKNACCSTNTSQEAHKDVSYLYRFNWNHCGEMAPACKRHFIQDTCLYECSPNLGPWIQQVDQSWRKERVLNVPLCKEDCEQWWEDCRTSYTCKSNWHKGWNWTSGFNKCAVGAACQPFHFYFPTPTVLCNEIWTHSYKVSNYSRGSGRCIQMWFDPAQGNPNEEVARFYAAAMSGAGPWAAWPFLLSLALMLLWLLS
FRβ, sequence (P14207 17-255): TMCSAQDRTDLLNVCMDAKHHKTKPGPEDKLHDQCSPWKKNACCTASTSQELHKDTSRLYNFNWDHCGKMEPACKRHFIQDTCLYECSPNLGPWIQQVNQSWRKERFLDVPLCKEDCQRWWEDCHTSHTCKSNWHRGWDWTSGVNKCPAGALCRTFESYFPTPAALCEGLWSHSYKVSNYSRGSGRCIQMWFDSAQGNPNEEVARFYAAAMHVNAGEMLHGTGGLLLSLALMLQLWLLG

Structure (SMILES)	IC50 [1, 9]	inhibition of DHFR [2]	inhibition of TS [3]	tumor growth delay (T–C value) [4]	also measured
C#CCC(Cc1cnc2nc(N)nc(N)c2n1)c1ccc(C(=O)N[C@@H](CCC(=O)O)C(=O)O)cc1 (stereo partly drawn) [PDX, N-(4-{1-[(2,4-diaminopteridin-6-yl)methyl]but-3-yn-1-yl}-benzoyl)-L-glutamic acid]	0.47 nM	–	–	–	IC50 ([1]; read-out: IC50 for inhibition of proliferation, KB (+FA)): 1.94 nM
Nc1nc(N)c2c(CCCc3cc(C(=O)N[C@@H](CCC(=O)O)C(=O)O)cs3)coc2n1 [compound 8, (S)-2-({5-[3-(2,4-Diamino-furo[2,3-d]pyrimidin-5-yl)-propyl]-thiophene-3-carbonyl}-amino)-pentanedioic Acid]	–	Neither 6 nor 8 were potent inhibitors of DHFR or TS	Neither 6 nor 8 were potent inhibitors of DHFR or TS	–	–
Nc1nc2[nH]c(CCCc3ccc(C(=O)N[C@@H](CCC(=O)O)C(=O)O)s3)cc2c(=O)[nH]1 [compound 4]	0.26 nM	–	–	13 days	–
Nc1nc2[nH]c(CCCc3cc(C(=O)N[C@@H](CCC(=O)O)C(=O)O)cs3)cc2c(=O)[nH]1 [compound 7, (S)-2-({5-[3-(2-Amino-4-oxo-4,7-dihydro-3H-pyrrolo[2,3-d]-pyrimidin-6-yl)-propyl]-thiophene-3-carbonyl}-amino)-pentanedioic Acid]	–	–	–	13 days	relative binding affinity to FRα, % of that for folic acid [5]: approximately 60 % of that for folic acid; relative binding affinity to FRβ, % of the affinity for folic acid [6]: 35–40 % of the affinity for folic acid; PCFT uptake of [3H]7 in excess of that for [3H]PMX ([7]; 0.5 μM, pH 5.5, 37 °C): ~ 40%; Vmax, PCFT transport, pH 5.5 ([7]; pH 5.5): 24.62 (±6.60) pmol/mg/min; Vmax, PCFT transport, pH 6.8 ([7]; pH 6.8): 3.0 (±0.3) pmol/mg/min; fold more potent as inhibitor of human GARFTase than 4 [8]: ~ 7 fold; fold more potent as inhibitor of human GARFTase than PMX [8]: > 100 fold
Nc1nc(N)c2c(CCCc3csc(C(=O)N[C@@H](CCC(=O)O)C(=O)O)c3)coc2n1 [compound 6, (S)-2-({4-[3-(2,4-Diamino-furo[2,3-d]pyrimidin-5-yl)-propyl]-thiophene-2 carbonyl}-amino)-pentanedioic Acid]	–	Neither 6 nor 8 were potent inhibitors of DHFR or TS	Neither 6 nor 8 were potent inhibitors of DHFR or TS	–	–
